# BindingDB's records for doi:10.1016/j.bmcl.2008.01.067 (Spot-Ea3857, 2008)
# Biological target: Peroxisome proliferator-activated receptor gamma (Homo sapiens) (UniProt P37231)
# Assay: Agonist activity at human PPARgamma at 100 uM by GAL4 transactivation assay relative to Rosiglitazone
row,EC50,Compound
1,37 nM,CCO[C@@H](Cc1ccc(OCCc2ccc(OS(C)(=O)=O)cc2)cc1)C(=O)O [(2S)-2-ethoxy-3-(4-{2-[4-(methanesulfonyloxy)phenyl]ethoxy}phenyl)propanoic acid]
2,195 nM,"COC(=O)C(Cc1ccc(OCCN2CCC(C)(C)c3cc(C(N=O)c4ccccc4)ccc32)cc1)C(=O)OC (centres undefined) [dimethyl 2-(4-(2-(6-((hydroxyimino)(phenyl)methyl)-4,4-dimethyl-3,4-dihydroquinolin-1(2H)-yl)ethoxy)benzyl)malonate]"
3,152 nM,"COC(=O)C(Cc1ccc(OCCN2CCC(C)(C)c3cc(C(=O)c4ccccc4)ccc32)cc1)C(=O)OC [dimethyl 2-(4-(2-(6-benzoyl-4,4-dimethyl-3,4-dihydroquinolin-1(2H)-yl)ethoxy)benzyl)malonate]"
4,48 nM,"CCOC(=O)C(Cc1ccc(OCCN2CCC(C)(C)c3cc(C(N=O)c4ccccc4)ccc32)cc1)OCC (centres undefined) [ethyl 2-ethoxy-3-(4-(2-(6-((hydroxyimino)(phenyl)methyl)-4,4-dimethyl-3,4-dihydroquinolin-1(2H)-yl)ethoxy)phenyl)propanoate]"
